Measured values: patent US9000003B2, “Anti-folate antimalarials with dual-binding modes and their preparation” (priority 2011, dated 2015)
Where a name gives a salt, the structure may show the parent alone. Read-outs that look alike come from different tables or passages of the source.

Legend:
Format in all cases: cell-based, Plasmodium falciparum
[1] = test system: P. falciparum V1/S (quadruple mutant, N51I+C59R+S108N+I164L); test: In vitro anti-Plasmodial activity against V1/S
Experimental: (§1) It is an object of the invention to provide anti-folate antimalarials with dual-binding modes, and pharmaceutically acceptable salts thereof, for substantially inhibiting dihydrofolate reductase enzymes. Enzymes, comprising dihydrofolate reductase of Plasmodium falciparum, wild-type, double (C59R+S108N), triple (N51+C59R+S108N, C59R+S108N+1164L), and quadruple (N51+C59R+S108N+I164L) mutants were prepared. The inhibition constants (Ki) of the enzymes with the invented compounds were investigated using a standard method. In vitro antimalarial activity (IC50) with malaria parasites carrying Tm4/8.2 (wild type), K1CB1 (double mutant, C59R+S108N), W2 (triple mutant N51I+C59R+S 108N), Cs1-2 (triple mutant, C59R+S108N+I164L), and V1/S (quadruple mutant, N51I+C59R+S108N+I164L) were also investigated using a standard method.

[2] = test system: P. falciparum Tm4/8.2 (wild type); test: In vitro anti-Plasmodial activity against Tm4/8.2; conditions: P. falciparum Tm4/8.2, wild type DHFR
Experimental: as §1

[3] = test system: P. falciparum K1CB1 (double mutant, C59R+S108N); test: In vitro anti-Plasmodial activity against K1CB1
Experimental: as §1

[4] = test system: P. falciparum Cs1-2 (triple mutant, C59R+S108N+I164L); test: In vitro anti-Plasmodial activity against Cs1-2
Experimental: as §1

[5] = test system: P. falciparum W2 (triple mutant N51I+C59R+S108N); test: In vitro anti-Plasmodial activity against W2
Experimental: as §1

[6] = Plasmodium falciparum, read-out: IC50 V1/S, P. falciparum V1/S, quadruple mutant
[7] = Plasmodium falciparum, read-out: IC50 K1CB1, P. falciparum K1CB1, double mutant
[8] = Plasmodium falciparum, read-out: IC50 Cs1-2, P. falciparum Cs1-2, triple mutant
[9] = Plasmodium falciparum, W2, read-out: IC50 W2, P. falciparum W2, triple mutant

Structure (SMILES) | IC50 [1, 6] [µM] | IC50 ([2]; Plasmodium falciparum) [µM] | IC50 [3, 7] [µM] | IC50 [4, 8] [µM] | IC50 [5, 9] [µM] | IC50 ([1]; read-out: IC50 V1/S, P. falciparum V1/S, quadruple mutant) [µM] | IC50 ([4]; read-out: IC50 Cs1-2, P. falciparum Cs1-2, triple mutant) [µM] | IC50 ([5]; read-out: IC50 W2, P. falciparum W2, triple mutant) [µM] | IC50 ([1]; read-out: IC50 V1/S, P. falciparum V1/S, quadruple mutant, dihydrochloride) [µM] | IC50 ([2]; dihydrochloride) [µM] | IC50 ([3]; read-out: IC50 K1CB1, P. falciparum K1CB1, double mutant, dihydrochloride) [µM] | IC50 ([4]; read-out: IC50 Cs1-2, P. falciparum Cs1-2, triple mutant, dihydrochloride) [µM] | IC50 ([5]; read-out: IC50 W2, P. falciparum W2, triple mutant, dihydrochloride) [µM]
CCc1nc(N)nc(N)c1OCCCOc1cccc(-c2c(N)nc(N)nc2CC)c1 [Compound A, 5-(3′-(3″-(2,4-diamino-6-ethylpyrimidin-5-yloxy)propoxy)phenyl)-6-ethylpyrimidine-2,4-diamine] | 1.72 ± 0.69 | 0.29 ± 0.05 | 0.22 ± 0.06 | 0.51 ± 0.08 | 0.25 ± 0.08 |  |  |  |  |  |  |  | 
CCc1nc(N)nc(N)c1OCCCOc1ccc(-c2c(N)nc(N)nc2CC)cc1 [Compound B, 5-(4′-(3″-(2,4-diamino-6-ethylpyrimidin-5-yloxy)propoxy)phenyl)-6-ethylpyrimidine-2,4-diamine] |  | 0.069 ± 0.01 | > 1 |  |  | > 1 | > 1 | > 1 |  |  |  |  | 
CCc1nc(N)nc(N)c1OCCCOc1ccc(-c2c(N)nc(N)nc2CC)cc1 [Compound D, 5-(4′-(3″-(2,4-diamino-6-ethylpyrimidin-5-yloxy)propoxy)phenyl)-6-ethylpyrimidine-2,4-diamine dihydrochloride] |  |  |  |  |  |  |  |  | 4.4 ± 0.71 | 0.063 ± 0.01 | 1.84 ± 0.31 | 3.95 ± 0.36 | 2.38 ± 0.11
CCc1nc(N)nc(N)c1-c1ccc(OCCCOc2ccc(-c3c(N)nc(N)nc3CC)cc2)cc1 [Compound E, 5-(4′-3″-(4″′-(2,4-diamino-6-ethylpyrimidin-5-yl)phenoxy)propoxy)phenyl)-6-ethylpyrimidine-2,4-diamine dihydrochloride] | 0.33 ± 0.02 | 0.035 | 0.33 ± 0.04 | 0.31 ± 0.02 | 0.28 ± 0.02 |  |  |  |  |  |  |  | 
CCc1nc(N)nc(N)c1-c1ccc(Cl)cc1 [Pyr, Pyrimethamine, reference compound] | > 100 | 0.066 ± 0.03 | 27 ± 3.33 | 37 ± 5.98 | 39 ± 5.42 |  |  |  |  |  |  |  | 
